Reference: patent US4061753A, “Treating psoriasis with transient pro-drug forms of xanthine derivatives” (INTERx Research Corporation, priority 1976, dated 1977)
In brackets after ≈: the same amount, converted by molar mass.

Experiments:
[1] = Partition Coefficient Studies (water solubility, heptane solubility, water/heptane partition)
[2] = Stability of the 7-hydroxymethyl derivative in water; assay type: physicochemical
[3] = tested on: phosphodiesterase; details: Sutherland and Rall 1958; cited from earlier work
[4] = e.g., heptane; cited from earlier work
[5] = heptane, organic solvent or mixture

Structure (SMILES)	solubility ([1]; water)	solubility [1, 5]	Water/Heptane partition coefficient [1]	further results
CN(C)CC(=O)OCn1cnc2c1c(=O)n(C)c(=O)n2C	> 1000 mg/mL			Heptane (solubility) ([1]; heptane): < 10 mg/500 ml
CCN(CC)C(=O)CCC(=O)OCn1cnc2c1c(=O)n(C)c(=O)n2C	26.3 mg/mL (≈ 72 mM)	0.17 mg/mL (≈ 0.465 mM)		
Cn1c(=O)c2c(ncn2CO)n(C)c1=O [7-hydroxymethyl derivative, 7-hydroxymethyl theophylline]				stability in water [2]: extremely unstable in water
CCC(=O)OCn1cnc2c1c(=O)n(C)c(=O)n2C [C2 H5, 7-Propionyloxymethyl-theophylline]	3.87 mg/mL (≈ 14.5 mM)	0.18 mg/mL (≈ 0.676 mM)	32.0	
CCCC(=O)OCn1cnc2c1c(=O)n(C)c(=O)n2C [C3 H7, 7-Butanoyloxymethyl-theophylline]	3.89 mg/mL (≈ 13.9 mM)	0.65 mg/mL (≈ 2.32 mM)	6.30	
CCCCCC(=O)OCn1cnc2c1c(=O)n(C)c(=O)n2C [C5 H11, 7-Hexanoyloxymethyl-theophylline]	0.11 mg/mL (≈ 0.357 mM)	2.26 mg/mL (≈ 7.33 mM)	0.42	
CCCCCCCC(=O)OCn1cnc2c1c(=O)n(C)c(=O)n2C [C7 H15, 7-Octanoyloxymethyl-theophylline]	0.12 mg/mL (≈ 0.357 mM)	0.52 mg/mL (≈ 1.55 mM)	0.06	
Cn1c(=O)c2c(ncn2COC(=O)C(C)(C)C)n(C)c1=O [C(CH3)3, 7-Pivalyloxymethyl-theophylline]	2.01 mg/mL (≈ 6.83 mM)	1.55 mg/mL (≈ 5.27 mM)	1.11	
Cn1c(=O)c2[nH]cnc2n(C)c1=O [theophylline]				effect on degradation of cyclic AMP by inhibiting phosphodiesterase activity [3]: decrease the degradation of cyclic AMP by inhibiting phosphodiesterase activity; solubility in lipid-like solvents [4]: almost insoluble
